Data from US9023789B2, “Amylin analogs and pharmaceutical compositions thereof” (Novo Nordisk A/S, priority 2012, dated 2015).
Numbered stars: 1 amine (or outer) side, 2 acyl side, 3 side chain; on linkers, the order of the positions; unused ones are H or OH. Bridge positions count the residues as written; N and C are the ends. Side chains are listed from the residue outwards. Peptide text beside a SMILES is read from it. * marks the point of attachment. C20 diacid = O=C(O)CCCCCCCCCCCCCCCCCCC(=O)*; γGlu = O=C(O)[C@H](CCC(=O)[*:2])N[*:1]

Tests used:
[1] = ASSAY (III) ThT fibrillation assay for physical stability; assay type: physicochemical
Outline: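 Physical stability scored by ThT fluorescence (444 nm excitation, 485 nm emission) tracked every 20 min during 37 °C incubation with 960 rpm shaking, ThT at 1 μM final. Values are replicate means with SD at chosen times; HPLC against pramlintide standard gives initial and post-assay soluble concentrations.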

[2] = molecular target: T1, rat calcitonin receptor (Rattus norvegicus, UniProt P32214); assay: ASSAY (VIII) binding to the rat calcitonin receptor; settings: Table 7, read-out: rCTR bind IC50
T1 construct: expressed in transfected cells; host or cells: BHK tk'ts 13 (transient, FuGENE 6), membranes
T1 sequence (P32214 25-479 isoform P32214-2 limits assumed): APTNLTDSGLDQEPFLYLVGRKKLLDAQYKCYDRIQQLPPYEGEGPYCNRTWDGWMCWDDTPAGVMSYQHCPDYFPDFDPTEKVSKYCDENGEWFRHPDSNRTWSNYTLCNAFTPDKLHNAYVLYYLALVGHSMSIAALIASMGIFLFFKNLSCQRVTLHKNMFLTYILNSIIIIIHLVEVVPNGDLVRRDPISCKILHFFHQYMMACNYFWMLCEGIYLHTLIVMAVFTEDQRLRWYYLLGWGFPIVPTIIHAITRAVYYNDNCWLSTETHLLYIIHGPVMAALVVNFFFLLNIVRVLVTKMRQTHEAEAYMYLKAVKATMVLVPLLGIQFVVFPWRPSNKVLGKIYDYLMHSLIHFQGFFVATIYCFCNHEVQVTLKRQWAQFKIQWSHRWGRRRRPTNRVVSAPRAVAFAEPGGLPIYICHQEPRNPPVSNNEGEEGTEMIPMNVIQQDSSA
Outline: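 BHK tk′ts 13 cells, transient rat calcitonin receptor transfection; DMEM + 10% FBS; harvest ~48 h post-transfection; membrane prep.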

[3] = molecular target: T2, rat amylin receptor (rat calcitonin receptor + rat RAMP 3) (Rattus norvegicus, UniProt P32214+Q9JJ73); assay: ASSAY (VI) binding to the rat amylin receptor; settings: for IC50: binding to rat amylin receptor, read-out: rAmylin-R bind IC50
T2 construct: expressed in transfected cells; host or cells: BHK tk'ts 13 (transient, FuGENE 6), membranes
T2 sequence (P32214 25-479 isoform P32214-2 limits assumed): T1 sequence (P32214 25-479 isoform P32214-2 limits assumed)
T2 sequence (Q9JJ73 23-147 partner): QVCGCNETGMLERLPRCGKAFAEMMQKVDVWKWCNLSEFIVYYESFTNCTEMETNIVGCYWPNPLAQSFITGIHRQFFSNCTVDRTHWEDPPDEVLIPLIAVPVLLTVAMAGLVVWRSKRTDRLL
Outline: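 The cell-membrane assay assessed binding at the rat amylin receptor. BHK tk′ts 13 cells were transfected transiently with rat calcitonin receptor, with FuGENE® 6 (Roche) as the transfection reagent, used per the manufacturer's recommendations. Approximately 48 hours after transfection the cells were harvested, and membranes were prepared for measuring binding.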

[4] = Table 7, rat binding selectivity, rCTR IC50 / rAmylin-R IC50
[5] = Table 7a (preferred compounds), rat binding selectivity, rCTR IC50 / rAmylin-R IC50
[6] = ratio of rCTR bind IC50 to rAmylin-R bind IC50

Structure (SMILES) | ThT pH 4.0 lag time (h) [1] [h] | IC50 [2] [µM] | IC50 ([3]; Table 7) [µM] | Ratio rCT/rAmylin binding [3, 4] | Ratio rCT/rAmylin binding [3, 5] | Ratio rCT/rAmylin binding [3, 6]
CC[C@H](C)[C@H](NC(=O)[C@H](C)NC(=O)CNC(=O)[C@H](Cc1ccccc1)NC(=O)[C@H](CC(N)=O)NC(=O)[C@@H]1CCCN1C(=O)[C@H](CO)NC(=O)[C@H](CO)NC(=O)[C@H](Cc1c[nH]cn1)NC(=O)[C@H](CCCNC(=N)N)NC(=O)[C@H](CC(C)C)NC(=O)[C@H](Cc1ccccc1)NC(=O)[C@H](CC(N)=O)NC(=O)[C@H](C)NC(=O)[C@H](CC(C)C)NC(=O)[C@H](CCCNC(=N)N)NC(=O)[C@H](CCC(N)=O)NC(=O)[C@@H](NC(=O)[C@H](C)NC(=O)[C@@H]1CSSC[C@H](NC(=O)[C@@H](N)CCCCNC(=O)COCCOCCNC(=O)CCCCCCCCCCCCCCCCCCC(=O)O)C(=O)N[C@@H](CC(N)=O)C(=O)N[C@@H]([C@@H](C)O)C(=O)N[C@@H](C)C(=O)N[C@@H]([C@@H](C)O)C(=O)N1)[C@@H](C)O)C(=O)N1CCC[C@H]1C(=O)N[C@@H](CO)C(=O)N[C@@H](CO)C(=O)N[C@H](C(=O)N[C@@H](CC(N)=O)C(=O)N[C@H](C(=O)NCC(=O)N[C@@H](Cc1c[nH]cn1)C(=O)N[C@@H](CC(N)=O)C(=O)N[C@H](C(=O)N[C@@H](Cc1ccc(O)cc1)C(N)=O)[C@@H](C)O)C(C)C)[C@@H](C)O [Example 91] | 4 | 0.0295 | 0.000386 | 76.3 | 76.3 | 76.3
CC[C@H](C)[C@H](NC(=O)[C@H](C)NC(=O)CNC(=O)[C@H](Cc1ccccc1)NC(=O)[C@H](CC(N)=O)NC(=O)[C@@H]1CCCN1C(=O)[C@H](CO)NC(=O)[C@H](CO)NC(=O)[C@H](Cc1c[nH]cn1)NC(=O)[C@H](CCCNC(=N)N)NC(=O)[C@H](CC(C)C)NC(=O)[C@H](Cc1ccccc1)NC(=O)[C@H](Cc1c[nH]cn1)NC(=O)[C@H](C)NC(=O)[C@H](CC(C)C)NC(=O)[C@H](CCCNC(=N)N)NC(=O)[C@H](CCC(N)=O)NC(=O)[C@@H](NC(=O)[C@H](C)NC(=O)[C@@H]1CSSC[C@H](NC(=O)[C@@H](N)CCCCNC(=O)CC[C@H](NC(=O)CC[C@H](NC(=O)CCCCCCCCCCCCCCCCCCC(=O)O)C(=O)O)C(=O)O)C(=O)N[C@@H](CC(N)=O)C(=O)N[C@@H]([C@@H](C)O)C(=O)N[C@@H](C)C(=O)N[C@@H]([C@@H](C)O)C(=O)N1)[C@@H](C)O)C(=O)N1CCC[C@H]1C(=O)N[C@@H](CO)C(=O)N[C@@H](CO)C(=O)N[C@H](C(=O)N[C@@H](CC(N)=O)C(=O)N[C@H](C(=O)NCC(=O)N[C@@H](CO)C(=O)N[C@@H](CC(N)=O)C(=O)N[C@H](C(=O)N[C@@H](Cc1ccc(O)cc1)C(N)=O)[C@@H](C)O)C(C)C)[C@@H](C)O [Example 92] | 8 | 0.105 | 0.000668 | 156.4 | 156.4 | 156.4
CC[C@H](C)[C@H](NC(=O)[C@H](C)NC(=O)CNC(=O)[C@H](Cc1ccccc1)NC(=O)[C@H](CC(N)=O)NC(=O)[C@@H]1CCCN1C(=O)[C@H](CO)NC(=O)[C@H](CO)NC(=O)[C@H](Cc1c[nH]cn1)NC(=O)[C@H](CCCNC(=N)N)NC(=O)[C@H](CC(C)C)NC(=O)[C@H](Cc1ccccc1)NC(=O)[C@H](C)NC(=O)[C@H](C)NC(=O)[C@H](CC(C)C)NC(=O)[C@H](CCCNC(=N)N)NC(=O)[C@H](CCC(N)=O)NC(=O)[C@@H](NC(=O)[C@H](C)NC(=O)[C@@H]1CSSC[C@H](NC(=O)[C@@H](N)CCCCNC(=O)CC[C@H](NC(=O)CCCCCCCCCCCCCCCCCCC(=O)O)C(=O)O)C(=O)N[C@@H](CC(N)=O)C(=O)N[C@@H]([C@@H](C)O)C(=O)N[C@@H](C)C(=O)N[C@@H]([C@@H](C)O)C(=O)N1)[C@@H](C)O)C(=O)N1CCC[C@H]1C(=O)N[C@@H](CO)C(=O)N[C@@H](CO)C(=O)N[C@H](C(=O)N[C@@H](CC(N)=O)C(=O)N[C@H](C(=O)NCC(=O)N[C@@H](Cc1c[nH]cn1)C(=O)N[C@@H](CC(N)=O)C(=O)N[C@H](C(=O)N[C@@H](Cc1ccc(O)cc1)C(N)=O)[C@@H](C)O)C(C)C)[C@@H](C)O [Example 93] (H-K([γGlu-C20 diacid])CNTATCATQRLAAFLRHSSPNFGAIPSSTNVGHNTY-NH2; disulfide 2-7; N-terminus assumed) | 16 | 0.131 | 0.00158 | 83.2 | 83.2 | 83.2
CC[C@H](C)[C@H](NC(=O)[C@H](C)NC(=O)CNC(=O)[C@H](Cc1ccccc1)NC(=O)[C@H](CC(N)=O)NC(=O)[C@@H]1CCCN1C(=O)[C@H](CO)NC(=O)[C@H](CO)NC(=O)[C@H](Cc1c[nH]cn1)NC(=O)[C@H](CCCNC(=N)N)NC(=O)[C@H](CC(C)C)NC(=O)[C@H](Cc1ccccc1)NC(=O)[C@H](CC(N)=O)NC(=O)[C@H](C)NC(=O)[C@H](CC(C)C)NC(=O)[C@H](CCCNC(=N)N)NC(=O)[C@H](CCC(N)=O)NC(=O)[C@@H](NC(=O)[C@H](C)NC(=O)[C@@H]1CSSC[C@H](NC(=O)[C@@H](N)CCCCNC(=O)COCCOCCNC(=O)COCCOCCNC(=O)CC[C@H](NC(=O)CCCCCCCCCCCCCCCCCCC(=O)O)C(=O)O)C(=O)N[C@@H](CC(N)=O)C(=O)N[C@@H]([C@@H](C)O)C(=O)N[C@@H](C)C(=O)N[C@@H]([C@@H](C)O)C(=O)N1)[C@@H](C)O)C(=O)N1CCC[C@H]1C(=O)N[C@@H](CO)C(=O)N[C@@H](CO)C(=O)N[C@H](C(=O)N1CCC[C@H]1C(=O)N[C@H](C(=O)NCC(=O)N[C@@H](CO)C(=O)N[C@@H](CC(N)=O)C(=O)N[C@H](C(=O)N[C@@H](Cc1ccc(O)cc1)C(N)=O)[C@@H](C)O)C(C)C)[C@@H](C)O [Example 96] | 12 | 0.0622 | 0.000529 | 117.5 | 117.5 | 117.5
CC[C@H](C)[C@H](NC(=O)[C@H](C)NC(=O)CNC(=O)[C@H](Cc1ccccc1)NC(=O)[C@H](CC(N)=O)NC(=O)[C@@H]1CCCN1C(=O)[C@H](CO)NC(=O)[C@H](CO)NC(=O)[C@H](Cc1c[nH]cn1)NC(=O)[C@H](CCCNC(=N)N)NC(=O)[C@H](CC(C)C)NC(=O)[C@H](Cc1ccccc1)NC(=O)[C@H](CC(N)=O)NC(=O)[C@H](C)NC(=O)[C@H](CC(C)C)NC(=O)[C@H](CCCNC(=N)N)NC(=O)[C@H](CCC(N)=O)NC(=O)[C@@H](NC(=O)[C@H](C)NC(=O)[C@@H]1CSSC[C@H](NC(=O)[C@@H](N)CCCCNC(=O)COCCOCCNC(=O)COCCOCCNC(=O)CC[C@H](NC(=O)CCCCCCCCCCCCCCCCCCC(=O)O)C(=O)O)C(=O)N[C@@H](CC(N)=O)C(=O)N[C@@H]([C@@H](C)O)C(=O)N[C@@H](C)C(=O)N[C@@H]([C@@H](C)O)C(=O)N1)[C@@H](C)O)C(=O)N1CCC[C@H]1C(=O)N[C@@H](CO)C(=O)N[C@@H](CO)C(=O)N[C@H](C(=O)N[C@@H](CC(N)=O)C(=O)N[C@H](C(=O)NCC(=O)N[C@@H](Cc1c[nH]cn1)C(=O)N[C@@H](CC(N)=O)C(=O)N[C@H](C(=O)N[C@@H](Cc1ccc(O)cc1)C(N)=O)[C@@H](C)O)C(C)C)[C@@H](C)O [Example 97] | 30 | 0.159 | 0.00224 | 71.1 | 71.1 | 71.1
